Where “and” joins values, the source holds several entries; their conditions need not be identical. Equal values may be shown once.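 All cell lines were grown in 96-well plates and treated with compound for 48 hours. GI50: concentration for 50% inhibition of growth. TGI marks complete inhibition of growth.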
The compounds below were run on NCI-H226 lung (assay: growth of human tumour cells (NCI), 48 h).

Row | SMILES | TGI
1 | CC(=O)c1c(-c2ccc(Cl)cc2)c(C#N)c(=S)n(C2OC(CO)C(O)C(O)C2O)c1-c1ccccc1 (configuration not stated) | > 100 µM
2 | COC(=O)c1ccc2cc(O)c(O)cc2c1 | > 100 µM
3 | CN(C)C=Nc1ccc2c3c(cccc13)-c1ccccc1-2 | 22.8 µM
4 | COC(=O)C1C(O)C(C)C(O)C(C)(O)C=C(C)C2=C3C(=C(C)C(=O)c4c(O)c(c(C)c(OC(C)=O)c43)NC(=O)C(C)=C/C=C\C(C)(O)C(O)C(C)C1O)OCO2 (configuration not stated) | > 100 µM

These compounds were tested on NCI-H23 lung (assay: growth of human tumour cells (NCI), 48 h).

Row | SMILES | TGI
5 | CC(=O)c1c(-c2ccc(Cl)cc2)c(C#N)c(=S)n(C2OC(CO)C(O)C(O)C2O)c1-c1ccccc1 (configuration not stated) | > 100 µM
6 | COC(=O)c1ccc2cc(O)c(O)cc2c1 | > 82 µM
7 | CN(C)C=Nc1ccc2c3c(cccc13)-c1ccccc1-2 | 32.9 µM
8 | COC(=O)C1C(O)C(C)C(O)C(C)(O)C=C(C)C2=C3C(=C(C)C(=O)c4c(O)c(c(C)c(OC(C)=O)c43)NC(=O)C(C)=C/C=C\C(C)(O)C(O)C(C)C1O)OCO2 (configuration not stated) | > 100 µM

What follows are compounds tested on NCI-H460 lung (assay: growth of human tumour cells (NCI), 48 h).

Row | SMILES | TGI
9 | CC(=O)c1c(-c2ccc(Cl)cc2)c(C#N)c(=S)n(C2OC(CO)C(O)C(O)C2O)c1-c1ccccc1 (configuration not stated) | > 100 µM
10 | COC(=O)C1C(O)C(C)C(O)C(C)(O)C=C(C)C2=C3C(=C(C)C(=O)c4c(O)c(c(C)c(OC(C)=O)c43)NC(=O)C(C)=C/C=C\C(C)(O)C(O)C(C)C1O)OCO2 (configuration not stated) | > 100 µM

These compounds were tested on NCI-H522 lung (assay: growth of human tumour cells (NCI), 48 h).

Row | SMILES | TGI
11 | CC(=O)c1c(-c2ccc(Cl)cc2)c(C#N)c(=S)n(C2OC(CO)C(O)C(O)C2O)c1-c1ccccc1 (configuration not stated) | > 100 µM
12 | COC(=O)c1ccc2cc(O)c(O)cc2c1 | > 64.7 µM
13 | CN(C)C=Nc1ccc2c3c(cccc13)-c1ccccc1-2 | 18.8 µM
14 | COC(=O)C1C(O)C(C)C(O)C(C)(O)C=C(C)C2=C3C(=C(C)C(=O)c4c(O)c(c(C)c(OC(C)=O)c43)NC(=O)C(C)=C/C=C\C(C)(O)C(O)C(C)C1O)OCO2 (configuration not stated) | > 100 µM

What follows are compounds tested on NCI/ADR-RES ovarian (assay: growth of human tumour cells (NCI), 48 h).

Row | SMILES | TGI
15 | CC(=O)c1c(-c2ccc(Cl)cc2)c(C#N)c(=S)n(C2OC(CO)C(O)C(O)C2O)c1-c1ccccc1 (configuration not stated) | > 100 µM
16 | COC(=O)c1ccc2cc(O)c(O)cc2c1 | > 78.2 µM
17 | CN(C)C=Nc1ccc2c3c(cccc13)-c1ccccc1-2 | 31.4 µM
18 | COC(=O)C1C(O)C(C)C(O)C(C)(O)C=C(C)C2=C3C(=C(C)C(=O)c4c(O)c(c(C)c(OC(C)=O)c43)NC(=O)C(C)=C/C=C\C(C)(O)C(O)C(C)C1O)OCO2 (configuration not stated) | > 100 µM

Each compound was assayed on OVCAR-3 ovarian (assay: growth of human tumour cells (NCI), 48 h).

Row | SMILES | TGI
19 | CC(=O)c1c(-c2ccc(Cl)cc2)c(C#N)c(=S)n(C2OC(CO)C(O)C(O)C2O)c1-c1ccccc1 (configuration not stated) | > 100 µM
20 | COC(=O)c1ccc2cc(O)c(O)cc2c1 | > 100 µM
21 | CN(C)C=Nc1ccc2c3c(cccc13)-c1ccccc1-2 | 28.9 µM
22 | COC(=O)C1C(O)C(C)C(O)C(C)(O)C=C(C)C2=C3C(=C(C)C(=O)c4c(O)c(c(C)c(OC(C)=O)c43)NC(=O)C(C)=C/C=C\C(C)(O)C(O)C(C)C1O)OCO2 (configuration not stated) | 57 µM

Each compound was assayed on OVCAR-4 ovarian (assay: growth of human tumour cells (NCI), 48 h).

Row | SMILES | GI50 | TGI
23 | CC(=O)c1c(-c2ccc(Cl)cc2)c(C#N)c(=S)n(C2OC(CO)C(O)C(O)C2O)c1-c1ccccc1 (configuration not stated) | > 86.4 µM and 14.7 µM | > 100 µM
24 | COC(=O)c1ccc2cc(O)c(O)cc2c1 |  | > 100 µM
25 | CN(C)C=Nc1ccc2c3c(cccc13)-c1ccccc1-2 |  | 31.6 µM
26 | COC(=O)C1C(O)C(C)C(O)C(C)(O)C=C(C)C2=C3C(=C(C)C(=O)c4c(O)c(c(C)c(OC(C)=O)c43)NC(=O)C(C)=C/C=C\C(C)(O)C(O)C(C)C1O)OCO2 (configuration not stated) |  | > 100 µM

Each compound was assayed on OVCAR-5 ovarian (assay: growth of human tumour cells (NCI), 48 h).

Row | SMILES | GI50 | TGI
27 | CC(=O)c1c(-c2ccc(Cl)cc2)c(C#N)c(=S)n(C2OC(CO)C(O)C(O)C2O)c1-c1ccccc1 (configuration not stated) | > 100 µM | > 100 µM
28 | COC(=O)c1ccc2cc(O)c(O)cc2c1 |  | > 100 µM
29 | CN(C)C=Nc1ccc2c3c(cccc13)-c1ccccc1-2 |  | 23.1 µM
30 | COC(=O)C1C(O)C(C)C(O)C(C)(O)C=C(C)C2=C3C(=C(C)C(=O)c4c(O)c(c(C)c(OC(C)=O)c43)NC(=O)C(C)=C/C=C\C(C)(O)C(O)C(C)C1O)OCO2 (configuration not stated) |  | > 100 µM

What follows are compounds tested on OVCAR-8 ovarian (assay: growth of human tumour cells (NCI), 48 h).

Row | SMILES | TGI
31 | CC(=O)c1c(-c2ccc(Cl)cc2)c(C#N)c(=S)n(C2OC(CO)C(O)C(O)C2O)c1-c1ccccc1 (configuration not stated) | > 100 µM
32 | COC(=O)c1ccc2cc(O)c(O)cc2c1 | > 91.3 µM
33 | CN(C)C=Nc1ccc2c3c(cccc13)-c1ccccc1-2 | 29.8 µM
34 | COC(=O)C1C(O)C(C)C(O)C(C)(O)C=C(C)C2=C3C(=C(C)C(=O)c4c(O)c(c(C)c(OC(C)=O)c43)NC(=O)C(C)=C/C=C\C(C)(O)C(O)C(C)C1O)OCO2 (configuration not stated) | > 100 µM

Each compound was assayed on PC-3 prostate (assay: growth of human tumour cells (NCI), 48 h).

Row | SMILES | GI50 | TGI
35 | CC(=O)c1c(-c2ccc(Cl)cc2)c(C#N)c(=S)n(C2OC(CO)C(O)C(O)C2O)c1-c1ccccc1 (configuration not stated) | 7.97 µM and 58.6 µM | > 100 µM
36 | COC(=O)c1ccc2cc(O)c(O)cc2c1 |  | > 100 µM
37 | CN(C)C=Nc1ccc2c3c(cccc13)-c1ccccc1-2 |  | 26.3 µM
38 | COC(=O)C1C(O)C(C)C(O)C(C)(O)C=C(C)C2=C3C(=C(C)C(=O)c4c(O)c(c(C)c(OC(C)=O)c43)NC(=O)C(C)=C/C=C\C(C)(O)C(O)C(C)C1O)OCO2 (configuration not stated) |  | > 100 µM

The compounds below were run on RPMI-8226 leukemia (assay: growth of human tumour cells (NCI), 48 h).

Row | SMILES | TGI
39 | CC(=O)c1c(-c2ccc(Cl)cc2)c(C#N)c(=S)n(C2OC(CO)C(O)C(O)C2O)c1-c1ccccc1 (configuration not stated) | > 100 µM
40 | COC(=O)c1ccc2cc(O)c(O)cc2c1 | > 100 µM
41 | CN(C)C=Nc1ccc2c3c(cccc13)-c1ccccc1-2 | 38.9 µM
42 | COC(=O)C1C(O)C(C)C(O)C(C)(O)C=C(C)C2=C3C(=C(C)C(=O)c4c(O)c(c(C)c(OC(C)=O)c43)NC(=O)C(C)=C/C=C\C(C)(O)C(O)C(C)C1O)OCO2 (configuration not stated) | > 100 µM

What follows are compounds tested on RXF 393 renal (assay: growth of human tumour cells (NCI), 48 h).

Row | SMILES | TGI
43 | CC(=O)c1c(-c2ccc(Cl)cc2)c(C#N)c(=S)n(C2OC(CO)C(O)C(O)C2O)c1-c1ccccc1 (configuration not stated) | > 100 µM
44 | COC(=O)c1ccc2cc(O)c(O)cc2c1 | > 100 µM
45 | CN(C)C=Nc1ccc2c3c(cccc13)-c1ccccc1-2 | 21 µM
46 | COC(=O)C1C(O)C(C)C(O)C(C)(O)C=C(C)C2=C3C(=C(C)C(=O)c4c(O)c(c(C)c(OC(C)=O)c43)NC(=O)C(C)=C/C=C\C(C)(O)C(O)C(C)C1O)OCO2 (configuration not stated) | > 100 µM

The compounds below were run on SF-268 CNS (assay: growth of human tumour cells (NCI), 48 h).

Row | SMILES | TGI
47 | CC(=O)c1c(-c2ccc(Cl)cc2)c(C#N)c(=S)n(C2OC(CO)C(O)C(O)C2O)c1-c1ccccc1 (configuration not stated) | > 100 µM
48 | COC(=O)c1ccc2cc(O)c(O)cc2c1 | > 81.1 µM
49 | CN(C)C=Nc1ccc2c3c(cccc13)-c1ccccc1-2 | 26.8 µM
50 | COC(=O)C1C(O)C(C)C(O)C(C)(O)C=C(C)C2=C3C(=C(C)C(=O)c4c(O)c(c(C)c(OC(C)=O)c43)NC(=O)C(C)=C/C=C\C(C)(O)C(O)C(C)C1O)OCO2 (configuration not stated) | > 100 µM

These compounds were tested on SF-295 CNS (assay: growth of human tumour cells (NCI), 48 h).

Row | SMILES | TGI
51 | CC(=O)c1c(-c2ccc(Cl)cc2)c(C#N)c(=S)n(C2OC(CO)C(O)C(O)C2O)c1-c1ccccc1 (configuration not stated) | > 100 µM
52 | COC(=O)c1ccc2cc(O)c(O)cc2c1 | > 100 µM
53 | CN(C)C=Nc1ccc2c3c(cccc13)-c1ccccc1-2 | 27.9 µM
54 | COC(=O)C1C(O)C(C)C(O)C(C)(O)C=C(C)C2=C3C(=C(C)C(=O)c4c(O)c(c(C)c(OC(C)=O)c43)NC(=O)C(C)=C/C=C\C(C)(O)C(O)C(C)C1O)OCO2 (configuration not stated) | > 100 µM

What follows are compounds tested on SF-539 CNS (assay: growth of human tumour cells (NCI), 48 h).

Row | SMILES | GI50 | TGI
55 | CC(=O)c1c(-c2ccc(Cl)cc2)c(C#N)c(=S)n(C2OC(CO)C(O)C(O)C2O)c1-c1ccccc1 (configuration not stated) | > 100 µM | > 100 µM
56 | COC(=O)c1ccc2cc(O)c(O)cc2c1 |  | > 100 µM
57 | CN(C)C=Nc1ccc2c3c(cccc13)-c1ccccc1-2 |  | 24.5 µM
58 | COC(=O)C1C(O)C(C)C(O)C(C)(O)C=C(C)C2=C3C(=C(C)C(=O)c4c(O)c(c(C)c(OC(C)=O)c43)NC(=O)C(C)=C/C=C\C(C)(O)C(O)C(C)C1O)OCO2 (configuration not stated) |  | > 100 µM

From PubChem BioAssay (NCI)
